How the values were obtained:
[1] = system: HeLa (cervical cancer cell line); test: MTT colorimetric cytotoxicity assay, HeLa; assay type: cell-based, human; conditions: Homo sapiens, HeLa, 24 h, 24 h incubation, mean ± standard error
Description: Three human cancer cell lines, PC-3 (human prostate adenocarcinoma, metastatic), […], were used to test the anti-proliferative activity of β-enaminonitrile (4a–p) using the MTT colorimetric assay at concentrations ranging from 0–100 μM. The representative active cytotoxic substances 4a, 4c, 4d, 4e, 4g, 4i, 4k and 4o were also tested against two normal cell lines, human fetal lung (HFL-1) and human diploid fibroblasts (WI-38), as well as Adriamycin (ADR)-resistant human breast cancer cells (MCF-7/ADR). The reference cytotoxic agents, Vinblastine and Doxorubicin, were used in the tests.
The cytotoxic activity was appraised using the 3-(4,5-dimethylthiazol-2-yl)-2,5-diphenyltetrazolium bromide (MTT) colorimetric assay for the antitumor cell lines, as reported previously, and the ELISA assay for MCF-7/ADR [69].

P-glycoprotein (P-gp) = test: P-gp content in MCF-7/ADR cell lysate (human P-gp ELISA kit); assay type: cell-based; conditions: for inhibitory effect on the P-gp level: MCF-7/ADR, in words; for inhibition at 48 h, 12.5 µM / inhibition at 48 h, 25 µM / inhibition at 48 h, 50 µM / inhibition at 48 h, 100 µM / IC50 at 48 h: human, MCF-7/ADR cells (cell lysate), MCF-7/ADR cell lysate, ELISA; for inhibition at 48 h, 12.5 µM: Conc. 12.5 (µM); for inhibition at 48 h, 25 µM: Conc. 25 (µM); for inhibition at 48 h, 50 µM: Conc. 50 (µM); for inhibition at 48 h, 100 µM: Conc. 100 (µM)
Description: P-glycoprotein (P-gp)-mediated multidrug resistance (MDR) is a phenomenon in which cells become resistant to structurally and mechanistically unrelated drugs, resulting in low intracellular drug concentrations. It is one of the noteworthy problems in malignant tumor clinical therapeutics.
The content of P-gp in the MCF-7/ADR cell lysates after incubation with varying conc. (12.5–100 µM) of tested compounds 4a, 4c, 4d, 4e, 4g and 4i following exposure for 48 hr was determined using a commercial human P-gp (Permeability Glycoprotein) ELISA Kit (MBS2506188, MyBioSource Inc., San Diego, CA, USA). Absorption was recorded at 450 nm with a Spectramax Gemini fluorescence microplate reader (Molecular Devices, Sunnyvale, CA, USA).

[2] = target: T1, P-gp activity (efflux function) (Homo sapiens, UniProt P08183); test: Rhodamine 123 accumulation assay in MCF-7/ADR cells; assay type: cell-based; conditions: 4 h with compound then 5.25 μM Rho123 for 30 min
T1 construct: measuring intracellular accumulation of Rhodamine 123 in MCF-7/ADR cells; endogenous in cells; host or cells: MCF-7/ADR (Adriamycin-resistant human breast cancer cells)
T1 sequence (P08183 whole entry): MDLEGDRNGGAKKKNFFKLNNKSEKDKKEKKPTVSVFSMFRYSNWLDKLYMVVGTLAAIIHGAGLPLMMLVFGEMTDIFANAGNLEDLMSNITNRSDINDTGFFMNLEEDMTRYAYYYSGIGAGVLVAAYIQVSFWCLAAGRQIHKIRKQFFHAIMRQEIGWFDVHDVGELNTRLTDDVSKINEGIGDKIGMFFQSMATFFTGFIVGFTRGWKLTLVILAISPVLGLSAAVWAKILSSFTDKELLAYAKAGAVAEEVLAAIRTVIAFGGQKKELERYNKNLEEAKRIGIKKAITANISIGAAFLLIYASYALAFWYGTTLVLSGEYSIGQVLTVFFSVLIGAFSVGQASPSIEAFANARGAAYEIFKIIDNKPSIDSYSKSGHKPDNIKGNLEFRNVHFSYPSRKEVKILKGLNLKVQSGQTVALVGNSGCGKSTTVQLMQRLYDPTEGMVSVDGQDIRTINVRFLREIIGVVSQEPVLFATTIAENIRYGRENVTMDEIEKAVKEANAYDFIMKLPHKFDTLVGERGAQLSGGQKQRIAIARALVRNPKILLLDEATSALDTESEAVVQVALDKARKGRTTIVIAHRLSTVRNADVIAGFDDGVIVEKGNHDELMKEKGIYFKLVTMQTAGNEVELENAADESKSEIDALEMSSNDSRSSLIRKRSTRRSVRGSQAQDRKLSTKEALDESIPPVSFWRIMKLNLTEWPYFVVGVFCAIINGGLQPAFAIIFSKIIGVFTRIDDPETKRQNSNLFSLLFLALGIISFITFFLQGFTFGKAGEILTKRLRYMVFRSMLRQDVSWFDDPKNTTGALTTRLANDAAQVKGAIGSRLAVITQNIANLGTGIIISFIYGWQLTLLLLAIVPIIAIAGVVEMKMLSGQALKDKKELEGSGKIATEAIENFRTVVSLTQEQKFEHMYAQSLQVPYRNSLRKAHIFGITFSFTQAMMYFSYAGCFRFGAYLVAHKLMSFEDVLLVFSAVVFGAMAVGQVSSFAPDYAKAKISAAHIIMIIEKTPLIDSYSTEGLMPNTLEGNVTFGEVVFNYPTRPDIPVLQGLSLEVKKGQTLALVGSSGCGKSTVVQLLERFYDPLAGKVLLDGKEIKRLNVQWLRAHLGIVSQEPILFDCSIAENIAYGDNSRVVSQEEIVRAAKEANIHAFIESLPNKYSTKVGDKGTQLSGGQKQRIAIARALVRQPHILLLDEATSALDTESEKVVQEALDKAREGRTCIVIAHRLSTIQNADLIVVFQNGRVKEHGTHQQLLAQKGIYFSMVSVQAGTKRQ
Description: Furthermore, the reversion of P-gp-mediated multidrug resistance could be achieved by the down-regulation of P-gp expression and/or P-gp efflux function inhibition.
Briefly, resistant cancer cells were harvested, washed twice and counted. […] of each well was measured using a Spectramax Gemini fluorescence microplate reader (Molecular Devices, Sunnyvale, CA, USA). The total content of Rhodamine in each sample was determined by comparison with a Rhodamine standard curve.

MCF-7/ADR cells = test: Annexin V/PI double staining flow cytometric apoptosis test; assay type: cell-based, human; conditions: IC50 value, 24 h
Source text: One of the optional mechanisms regarding the lethal action of chemotherapeutic medicines is blocking cell cycle progression, triggering apoptosis with otherwise mutual effect. […] The pivotal relation of the newly synthesized MCF-7/ADR “anticancer drugs” was further evaluated using the Annexin V/PI double staining flow cytometric test. […] In comparison to Doxorubicin’s 30% total apoptosis rate, which was nearly identical to 4a, 4c and 4g, compounds 4d, 4e and 4i were leading with percentages of 41%, 31% and 38%, respectively. Only compounds 4a (8.5%) and 4g (11%) had greater effects on necrosis compared to doxorubicin (5%). Other examined substances caused both early and late apoptosis in all treated cells (Figure 7b). Therefore, MCF-7/ADR cytotoxicity is induced by apoptotic processes, apparently without negative effects on P-gp.
(a) The dot plot of the Annexin V/PI-stained cells, treated with the indicated drugs. […] The data are expressed as the mean ± SD of three independent experiments in triplicate. Significances are shown in comparison to control cells (* p < 0.001). TEXT PRINTED IN THE PICTURE: (a) DOX.: 3.33%; 18.41%; 7.85% | (a) 4a: 8.66%; 18.17%; 4.24% | (a) 4c: 2.74%; 12.73%; 9.11% | (a) 4d: 4.85%; 27.44%; 8.73% | (a) 4e: 5.77%; 9.92%; 15.92% | (a) 4g: 11.04%; 3.94%; 7.38% | (a) 4i: 5.54%; 12.87%; 19.61% DOUBTS OF THE COPYIST ABOUT THIS PICTURE: The quadrant percentages in panel (a) are printed very small and blurred, so 3, 5, 6, 8 and 9 cannot be told apart with certainty. […] They are told apart only by their quadrant in the PI / Annexin V-FITC plot, and are listed upper left, upper right, lower right. / The sample line in each plot reads MCF7/ADR. In the 4g plot it is cut off as 'MCF7/AI'. / The panel 'Cont.' (untreated control: 1.56%, 0.15%, 0.48%) is left out because it is not a substance.

N#CC1=C(N)Oc2ccc3ccc(O)cc3c2C1c1ccc(Cl)cc1Cl (stereo not shown) [4d, 3-Amino-1-(2,4-Dichlorophenyl)-9-Hydroxy-1H-Benzo[f]chromene-2-Carbonitrile]
IC50 [1]: 1.8 ± 0.1 µM
inhibitory effect on the P-gp level (P-glycoprotein (P-gp)): almost negligible inhibitory effect
inhibition at 48 h, 12.5 µM (P-glycoprotein (P-gp)): 10%
inhibition at 48 h, 25 µM (P-glycoprotein (P-gp)): 25%
inhibition at 48 h, 50 µM (P-glycoprotein (P-gp)): 43%
inhibition at 48 h, 100 µM (P-glycoprotein (P-gp)): 69%
IC50 at 48 h (P-glycoprotein (P-gp)): 65.9 µM
IC50 [2]: 46.6 µM
total apoptosis rate (MCF-7/ADR cells): 41%

N#CC1=C(N)Oc2ccc3ccc(O)cc3c2C1c1cccc(Cl)c1Cl (stereo not shown) [4c, 3-Amino-1-(2,3-Dichlorophenyl)-9-Hydroxy-1H-Benzo[f]chromene-2-Carbonitrile]
IC50 [1]: 1.7 ± 0.1 µM
inhibitory effect on the P-gp level (P-glycoprotein (P-gp)): strong inhibitory effect
inhibition at 48 h, 12.5 µM (P-glycoprotein (P-gp)): 26%
inhibition at 48 h, 25 µM (P-glycoprotein (P-gp)): 37%
inhibition at 48 h, 50 µM (P-glycoprotein (P-gp)): 71%
inhibition at 48 h, 100 µM (P-glycoprotein (P-gp)): 88%
IC50 at 48 h (P-glycoprotein (P-gp)): 30.8 µM
IC50 [2]: 28.7 µM

N#CC1=C(N)Oc2ccc3ccc(O)cc3c2C1c1ccc(Cl)c(Cl)c1 (stereo not shown) [4g, 3-Amino-1-(3,4-Dichlorophenyl)-9-Hydroxy-1H-Benzo[f]chromene-2-Carbonitrile]
IC50 [1]: 2.2 ± 0.2 µM
inhibition at 48 h, 12.5 µM (P-glycoprotein (P-gp)): 23%
inhibition at 48 h, 25 µM (P-glycoprotein (P-gp)): 34%
inhibition at 48 h, 50 µM (P-glycoprotein (P-gp)): 66%
inhibition at 48 h, 100 µM (P-glycoprotein (P-gp)): 83%
IC50 at 48 h (P-glycoprotein (P-gp)): 34.6 µM
IC50 [2]: 36.7 µM
necrosis (MCF-7/ADR cells): 11%

N#CC1=C(N)Oc2ccc3ccc(O)cc3c2C1c1cc(Br)cc(Br)c1 (stereo not shown) [4i, 3-Amino-1-(3,5-Dibromophenyl)-9-Hydroxy-1H-Benzo[f]chromene-2-Carbonitrile]
IC50 [1]: 3.4 ± 0.6 µM
inhibitory effect on the P-gp level (P-glycoprotein (P-gp)): almost negligible inhibitory effect
inhibition at 48 h, 12.5 µM (P-glycoprotein (P-gp)): 15%
inhibition at 48 h, 25 µM (P-glycoprotein (P-gp)): 30%
inhibition at 48 h, 50 µM (P-glycoprotein (P-gp)): 48%
inhibition at 48 h, 100 µM (P-glycoprotein (P-gp)): 76%
IC50 at 48 h (P-glycoprotein (P-gp)): 53.6 µM
IC50 [2]: 55.3 µM
total apoptosis rate (MCF-7/ADR cells): 38%

N#CC1=C(N)Oc2ccc3ccc(O)cc3c2C1c1cc(Cl)ccc1Cl (stereo not shown) [4e, 3-Amino-1-(2,5-Dichlorophenyl)-9-Hydroxy-1H-Benzo[f]chromene-2-Carbonitrile]
IC50 [1]: 2.7 ± 0.6 µM
inhibitory effect on the P-gp level (P-glycoprotein (P-gp)): strong inhibitory effect
inhibition at 48 h, 12.5 µM (P-glycoprotein (P-gp)): 36%
inhibition at 48 h, 25 µM (P-glycoprotein (P-gp)): 54%
inhibition at 48 h, 50 µM (P-glycoprotein (P-gp)): 80%
inhibition at 48 h, 100 µM (P-glycoprotein (P-gp)): 91%
IC50 at 48 h (P-glycoprotein (P-gp)): 18.7 µM
IC50 [2]: 14.6 µM
total apoptosis rate (MCF-7/ADR cells): 31%

N#CC1=C(N)Oc2ccc3ccc(O)cc3c2C1c1ccc(F)cc1F (stereo not shown) [4a, 3-Amino-1-(2,4-Difluorophenyl)-9-Hydroxy-1H-Benzo[f]chromene-2-Carbonitrile]
IC50 [1]: 2.8 ± 0.3 µM
inhibitory effect on the P-gp level (P-glycoprotein (P-gp)): strong inhibitory effect
inhibition at 48 h, 12.5 µM (P-glycoprotein (P-gp)): 25%
inhibition at 48 h, 25 µM (P-glycoprotein (P-gp)): 37%
inhibition at 48 h, 50 µM (P-glycoprotein (P-gp)): 68%
inhibition at 48 h, 100 µM (P-glycoprotein (P-gp)): 80%
IC50 at 48 h (P-glycoprotein (P-gp)): 32 µM
IC50 [2]: 23.3 µM
necrosis (MCF-7/ADR cells): 8.5%
